Experimental findings from PubChem BioAssay AID2202554 (NIEHS Division of Translational Toxicology (DTT)) are described below.

SMILES strings stand for the structures. Results filed as inconclusive are left out. Calls of active or inactive are those of the source. How the calls were made is not given here.

The data set relates to S. typhimurium/E. coli reverse mutation, colony counts. The data set can be described thus: Bacterial reverse mutation test (aka Ames test) summary data. A digest of the protocol: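 S. typhimurium his⁻ strains (TA97–TA1538) and E. coli WP2 uvrA pKM101 trp⁻, dosed over a range with or without rat, hamster or mouse liver S9. Preincubated 20 min at 37° C (or plate incorporation), plated in agar, incubated usually two days. Revertant colonies counted against negative controls.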
With `[Li+]`, the outcome is “inactive; negative”. The result for `Nc1ccc(N)c2c1C(=O)c1c(N)ccc(N)c1C2=O` reads “active; positive”; that for `C=CCCCCCC`, “inactive; negative”; that for `O=C(O)c1cc(Cl)cc(Cl)c1`, “inactive; negative”. The result for `Nc1cccc2c(=O)[nH][nH]c(=O)c12` reads “inactive; negative”; that for `CNN`, “inactive; negative”. Next, `Oc1ccc2c(c1)OCO2`: “inactive; negative”. In the case of `O=Cc1ccc(Cl)cc1`, the outcome was “inactive; negative”.

With `Cc1ccc(N=Nc2c(O)ccc3ccccc23)c([N+](=O)[O-])c1`, the outcome was “active; positive”. The result for `CC12CCC(C1)C(C)(C)C2=O` (stereo not given) reads “inactive; negative”; that for `CCCCCCCCCCCCCCCCC1CO1` (stereo not given), “inactive; negative”. With `CCc1cc(C(N)=S)ccn1`, the outcome is “inactive; negative”.

For the compound `CCNC(=O)Nc1ncc([N+](=O)[O-])s1`, the outcome is “active; positive”. The result for `CC(=O)C=CC1=C(C)CCCC1(C)C` reads “inactive; negative”; that for `OCC(CBr)(CBr)CBr`, “active; positive”.
